Experimental data reported in US10040781B2, “Tank-binding kinase inhibitor compounds” (Gilead Sciences, Inc., priority 2014, dated 2018).
Read-outs that look alike come from different tables or passages of the source.

What was measured:
hJAK2 = hJAK2 (Homo sapiens (Human), UniProt O60674); experiment: hJAK2 LANCE TR-FRET enzymatic assay; type: biochemical; details: read-out: JAK2 IC50
TBK1 = TBK1 (Homo sapiens (Human), UniProt Q9UHD2); experiment: TBK1 TR-FRET enzymatic assay;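 note: phosphorylation of a biotinylated Ser/Thr peptide by purified full-length recombinant TBK1, read by TR-FRET after 240 min at 25 °C, IC50 is the geometric mean of at least four runs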
Sequence of TBK1 (Q9UHD2 whole entry): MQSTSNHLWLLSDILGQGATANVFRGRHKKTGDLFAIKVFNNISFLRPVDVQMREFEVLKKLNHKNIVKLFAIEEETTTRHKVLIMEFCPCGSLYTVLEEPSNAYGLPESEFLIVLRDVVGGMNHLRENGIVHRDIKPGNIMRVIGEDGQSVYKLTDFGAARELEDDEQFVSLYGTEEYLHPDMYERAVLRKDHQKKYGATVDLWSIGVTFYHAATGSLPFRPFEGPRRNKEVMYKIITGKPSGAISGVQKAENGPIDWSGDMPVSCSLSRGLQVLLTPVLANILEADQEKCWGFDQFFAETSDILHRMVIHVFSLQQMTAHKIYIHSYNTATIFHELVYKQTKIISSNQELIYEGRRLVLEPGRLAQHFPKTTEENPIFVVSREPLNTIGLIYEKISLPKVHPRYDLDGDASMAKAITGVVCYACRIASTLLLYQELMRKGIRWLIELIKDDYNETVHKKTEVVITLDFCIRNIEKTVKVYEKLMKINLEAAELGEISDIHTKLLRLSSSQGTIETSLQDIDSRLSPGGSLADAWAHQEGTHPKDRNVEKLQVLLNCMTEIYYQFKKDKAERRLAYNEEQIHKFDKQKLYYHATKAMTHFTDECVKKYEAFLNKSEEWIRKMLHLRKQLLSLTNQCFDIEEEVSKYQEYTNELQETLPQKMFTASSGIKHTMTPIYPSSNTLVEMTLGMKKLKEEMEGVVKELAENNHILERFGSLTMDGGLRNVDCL

IKKε = IKKε (Homo sapiens (Human), UniProt Q14164); experiment: IKKε TR-FRET enzymatic assay; type: biochemical; details: read-out: IKKe IC50
Sequence of IKKε (Q14164 whole entry): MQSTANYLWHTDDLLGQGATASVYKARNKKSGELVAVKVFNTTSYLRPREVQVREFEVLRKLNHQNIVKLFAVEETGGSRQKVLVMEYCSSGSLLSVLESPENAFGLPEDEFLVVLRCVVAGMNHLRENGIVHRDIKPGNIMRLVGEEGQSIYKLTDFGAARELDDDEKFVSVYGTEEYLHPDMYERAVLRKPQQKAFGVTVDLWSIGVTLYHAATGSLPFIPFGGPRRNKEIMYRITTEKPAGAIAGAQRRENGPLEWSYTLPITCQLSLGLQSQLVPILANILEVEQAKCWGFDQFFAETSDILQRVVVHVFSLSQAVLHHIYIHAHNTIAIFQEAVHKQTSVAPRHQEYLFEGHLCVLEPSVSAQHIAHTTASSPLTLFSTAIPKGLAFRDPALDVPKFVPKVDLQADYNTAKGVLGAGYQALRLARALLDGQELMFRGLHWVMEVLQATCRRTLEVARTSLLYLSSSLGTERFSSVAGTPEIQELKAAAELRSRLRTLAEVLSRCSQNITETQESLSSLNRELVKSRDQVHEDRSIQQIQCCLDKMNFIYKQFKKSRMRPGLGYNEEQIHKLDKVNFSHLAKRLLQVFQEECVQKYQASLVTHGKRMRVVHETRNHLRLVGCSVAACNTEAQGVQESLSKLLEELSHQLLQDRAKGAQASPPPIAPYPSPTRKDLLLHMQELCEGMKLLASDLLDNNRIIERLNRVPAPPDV

Sequence of hJAK2 (O60674 whole entry): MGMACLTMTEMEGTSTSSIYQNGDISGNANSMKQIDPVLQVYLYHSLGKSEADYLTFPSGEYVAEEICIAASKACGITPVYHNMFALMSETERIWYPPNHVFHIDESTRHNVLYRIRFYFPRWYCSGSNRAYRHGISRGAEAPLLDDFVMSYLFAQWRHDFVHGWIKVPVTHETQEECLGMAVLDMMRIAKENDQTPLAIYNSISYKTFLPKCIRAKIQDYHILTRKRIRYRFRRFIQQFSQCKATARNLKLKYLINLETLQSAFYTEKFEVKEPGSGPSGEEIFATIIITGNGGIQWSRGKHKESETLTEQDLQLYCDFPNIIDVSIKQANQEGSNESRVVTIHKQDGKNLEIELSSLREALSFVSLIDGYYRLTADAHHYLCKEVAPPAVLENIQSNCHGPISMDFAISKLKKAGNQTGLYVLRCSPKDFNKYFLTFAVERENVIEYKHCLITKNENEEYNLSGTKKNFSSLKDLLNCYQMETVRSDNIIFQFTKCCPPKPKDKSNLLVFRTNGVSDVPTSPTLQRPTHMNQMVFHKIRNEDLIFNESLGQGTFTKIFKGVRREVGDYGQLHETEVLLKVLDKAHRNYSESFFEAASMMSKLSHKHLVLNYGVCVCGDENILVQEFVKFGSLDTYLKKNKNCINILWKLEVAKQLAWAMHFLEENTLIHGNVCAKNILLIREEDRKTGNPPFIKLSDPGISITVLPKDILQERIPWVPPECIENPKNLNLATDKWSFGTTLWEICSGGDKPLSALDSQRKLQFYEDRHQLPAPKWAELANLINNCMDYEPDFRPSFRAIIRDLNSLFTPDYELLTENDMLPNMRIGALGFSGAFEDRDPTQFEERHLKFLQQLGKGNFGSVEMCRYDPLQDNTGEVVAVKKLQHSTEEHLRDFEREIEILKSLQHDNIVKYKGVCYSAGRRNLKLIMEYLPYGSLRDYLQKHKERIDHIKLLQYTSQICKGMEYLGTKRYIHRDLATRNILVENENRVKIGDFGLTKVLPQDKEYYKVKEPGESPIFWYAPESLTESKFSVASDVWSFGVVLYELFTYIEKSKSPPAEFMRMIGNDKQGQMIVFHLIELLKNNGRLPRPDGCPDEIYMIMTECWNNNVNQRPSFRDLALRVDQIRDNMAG

| SMILES | IC50 (hJAK2) [nM] | IC50 (TBK1) [nM] | IC50 (IKKε) [nM] | IC50 (TBK1; TBK1 IC50) [nM] |
| --- | --- | --- | --- | --- |
| N#Cc1cc(-c2ncnc(Nc3ccc(N4CCN(C5COC5)CC4)cc3)n2)ccc1O[C@H]1CCN(C(=O)c2ccc[nH]2)C[C@H]1F [Example 141, 2-(((3R,4S)-3-fluoro-1-(1H-pyrrole-2-carbonyl)piperidin-4-yl)oxy)-5-(4-((4-(4-(oxetan-3-yl)piperazin-1-yl)phenyl)amino)-1,3,5-triazin-2-yl)benzonitrile] | 356 | 3 | 2 |  |
| N#Cc1cc(-c2ncnc(Nc3ccc(N4CCN(C5COC5)CC4)cc3)n2)ccc1O[C@H]1CCN(C(=O)c2ncc[nH]2)C[C@H]1F [Example 142, 2-(((3R,4S)-3-fluoro-1-(1H-imidazole-2-carbonyl)piperidin-4-yl)oxy)-5-(4-((4-(4-(oxetan-3-yl)piperazin-1-yl)phenyl)amino)-1,3,5-triazin-2-yl)benzonitrile] | 174 | 3 | 4 |  |
| N#Cc1cc(-c2ncnc(Nc3ccc(N4CCN(C5COC5)CC4)cc3)n2)ccc1O[C@H]1CCN(C(=O)c2cnn[nH]2)C[C@H]1F [Example 143, 2-(((3R,4S)-3-fluoro-1-(1H-1,2,3-triazole-5-carbonyl)piperidin-4-yl)oxy)-5-(4-((4-(4-(oxetan-3-yl)piperazin-1-yl)phenyl)amino)-1,3,5-triazin-2-yl)benzonitrile] | 84 | 2 | 1 |  |
| N#Cc1cc(-c2ncnc(Nc3ccc(N4CCN(C5COC5)CC4)cc3)n2)ccc1O[C@H]1CCN(C(=O)c2nnc[nH]2)C[C@H]1F [Example 144, 2-(((3R,4S)-3-fluoro-1-(4H-1,2,4-triazole-3-carbonyl)piperidin-4-yl)oxy)-5-(4-((4-(4-(oxetan-3-yl)piperazin-1-yl)phenyl)amino)-1,3,5-triazin-2-yl)benzonitrile] | 104 | 2 | 1 |  |
| N#Cc1cc(-c2ncnc(Nc3ccc(N4CCN(C5COC5)CC4)cc3)n2)ccc1O[C@H]1CCN(C(=O)c2ccn[nH]2)C[C@H]1F [Example 145, 2-(((3R,4S)-3-fluoro-1-(1H-pyrazole-5-carbonyl)piperidin-4-yl)oxy)-5-(4-((4-(4-(oxetan-3-yl)piperazin-1-yl)phenyl)amino)-1,3,5-triazin-2-yl)benzonitrile] | 219 | 2 | 1 |  |
| N#Cc1cc(-c2ncnc(Nc3ccc(N4CCN(C5COC5)CC4)cc3)n2)ccc1O[C@H]1CCN(C(=O)c2cnc[nH]2)C[C@H]1F [Example 146, 2-(((3R,4S)-3-fluoro-1-(1H-imidazole-5-carbonyl)piperidin-4-yl)oxy)-5-(4-((4-(4-(oxetan-3-yl)piperazin-1-yl)phenyl)amino)-1,3,5-triazin-2-yl)benzonitrile] | 156 | 3 | 1 |  |
| Cn1cc(C(=O)N2CC[C@H](Oc3ccc(-c4ncnc(Nc5ccc(N6CCN(C7COC7)CC6)cc5)n4)cc3C#N)[C@H](F)C2)nn1 [Example 147, 2-(((3R,4S)-3-fluoro-1-(1-methyl-1H-1,2,3-triazole-4-carbonyl)piperidin-4-yl)oxy)-5-(4-((4-(4-(oxetan-3-yl)piperazin-1-yl)phenyl)amino)-1,3,5-triazin-2-yl)benzonitrile] | 184 | 3 | 1 |  |
| N#Cc1cc(-c2ncnc(Nc3ccc(N4CCN(C5COC5)CC4)cc3)n2)ccc1O[C@H]1CCN(C(=O)c2cnc[nH]2)CC1(F)F [Example 167, (S)-2-((3,3-difluoro-1-(1H-imidazole-5-carbonyl)piperidin-4-yl)oxy)-5-(4-((4-(4-(oxetan-3-yl)piperazin-1-yl)phenyl)amino)-1,3,5-triazin-2-yl)benzonitrile] | 104 | 3 | 1 |  |
| CC1CC(Oc2ccc(-c3ncnc(Nc4ccc(N5CCN(C6COC6)CC5)cc4)n3)cc2C#N)CC(C)N1C(=O)CO (stereo not drawn) [Example 171, 2-((1-(2-hydroxyacetyl)-2,6-dimethylpiperidin-4-yl)oxy)-5-(4-((4-(4-(oxetan-3-yl)piperazin-1-yl)phenyl)amino)-1,3,5-triazin-2-yl)benzonitrile] | 463 | 2 | 9 |  |
| N#Cc1cc(-c2ncnc(Nc3ccc(N4CCN(C5COC5)CC4)cc3)n2)ccc1OC1C2CC1CN(C(=O)CO)C2 (stereo not drawn) [Example 172, 2-((3-(2-hydroxyacetyl)-3-azabicyclo[3.1.1]heptan-6-yl)oxy)-5-(4-((4-(4-(oxetan-3-yl)piperazin-1-yl)phenyl)amino)-1,3,5-triazin-2-yl)benzonitrile] | ≥ 1000 | 72 | 676 |  |
| N#Cc1cc(-c2ncnc(Nc3ccc(N4CCN(C5COC5)CC4)cc3)n2)ccc1OC1CC2CCC(C1)N2C(=O)CO (stereo not drawn) [Example 173, 2-((8-(2-hydroxyacetyl)-8-azabicyclo[3.2.1]octan-3-yl)oxy)-5-(4-((4-(4-(oxetan-3-yl)piperazin-1-yl)phenyl)amino)-1,3,5-triazin-2-yl)benzonitrile] | 265 |  | 218 | 92 |

Continued, in another order:

| IC50 (hJAK2) [nM] | IC50 (TBK1) [nM] | IC50 (IKKε) [nM] | SMILES | IC50 (TBK1; TBK1 IC50) [nM] |
| --- | --- | --- | --- | --- |
| 408 | 4 | 7 | N#Cc1cc(-c2ncnc(Nc3ccc(N4CCN(C5COC5)CC4)cc3)n2)ccc1O[C@H]1CCN(C(=O)CCO)C[C@H]1F [Example 139, 2-(((3R,4S)-3-fluoro-1-(3-hydroxypropanoyl)piperidin-4-yl)oxy)-5-(4-((4-(4-(oxetan-3-yl)piperazin-1-yl)phenyl)amino)-1,3,5-triazin-2-yl)benzonitrile] |  |
| 341 | 6 | 10 | N#Cc1cc(-c2ncnc(Nc3ccc(N4CCN(C5COC5)CC4)cc3)n2)ccc1O[C@H]1CCN(C(=O)C2(O)CC2)C[C@H]1F [Example 140, 2-(((3R,4S)-3-fluoro-1-(1-hydroxycyclopropanecarbonyl)piperidin-4-yl)oxy)-5-(4-((4-(4-(oxetan-3-yl)piperazin-1-yl)phenyl)amino)-1,3,5-triazin-2-yl)benzonitrile] |  |
| 168 | 1 | 3 | C[C@H](O)C(=O)N1CCC(Oc2ccc(-c3ncnc(Nc4ccc(N5CCN(C6COC6)CC5)cc4)n3)cc2C#N)C(F)(F)C1 (stereo partly drawn) [Example 154, 2-((3,3-difluoro-1-((S)-2-hydroxypropanoyl)piperidin-4-yl)oxy)-5-(4-((4-(4-(oxetan-3-yl)piperazin-1-yl)phenyl)amino)-1,3,5-triazin-2-yl)benzonitrile] |  |
| 188 | 3 | 14 | C[C@@H](O)C(=O)N1CCC(Oc2ccc(-c3ncnc(Nc4ccc(N5CCN(C6COC6)CC5)cc4)n3)cc2C#N)C(F)(F)C1 (stereo partly drawn) [Example 157, 2-((3,3-difluoro-1-((R)-2-hydroxypropanoyl)piperidin-4-yl)oxy)-5-(4-((4-(4-(oxetan-3-yl)piperazin-1-yl)phenyl)amino)-1,3,5-triazin-2-yl)benzonitrile] |  |
| 173 | 2 | 2 | N#Cc1cc(-c2ncnc(Nc3ccc(N4CCN(C5COC5)CC4)cc3)n2)ccc1O[C@H]1CCN(C(=O)CCO)CC1(F)F [Example 161, (S)-2-((3,3-difluoro-1-(3-hydroxypropanoyl)piperidin-4-yl)oxy)-5-(4-((4-(4-(oxetan-3-yl)piperazin-1-yl)phenyl)amino)-1,3,5-triazin-2-yl)benzonitrile] |  |
| 583 | 5 | 4 | N#Cc1cc(-c2ncnc(Nc3ccc(N4CCN(C5COC5)CC4)cc3)n2)ccc1OC1CCN(C(=O)c2ccc[nH]2)CC1(F)F (stereo not drawn) [Example 162, 2-((3,3-difluoro-1-(1H-pyrrole-2-carbonyl)piperidin-4-yl)oxy)-5-(4-((4-(4-(oxetan-3-yl)piperazin-1-yl)phenyl)amino)-1,3,5-triazin-2-yl)benzonitrile] |  |
| 155 | 3 | 1 | N#Cc1cc(-c2ncnc(Nc3ccc(N4CCN(C5COC5)CC4)cc3)n2)ccc1O[C@H]1CCN(C(=O)c2ccn[nH]2)CC1(F)F [Example 164, (S)-2-((3,3-difluoro-1-(1H-pyrazole-5-carbonyl)piperidin-4-yl)oxy)-5-(4-((4-(4-(oxetan-3-yl)piperazin-1-yl)phenyl)amino)-1,3,5-triazin-2-yl)benzonitrile] |  |
| 877 | 15 | 61 | C[C@@H]1C[C@@H](Oc2ccc(-c3ncnc(Nc4ccc(N5CCN(C6COC6)CC5)cc4)n3)cc2C#N)CCN1C(=O)CO [Example 168, 2-(((2R,4S)-1-(2-hydroxyacetyl)-2-methylpiperidin-4-yl)oxy)-5-(4-((4-(4-(oxetan-3-yl)piperazin-1-yl)phenyl)amino)-1,3,5-triazin-2-yl)benzonitrile] |  |
| 230 | 2 | 5 | C[C@H]1C[C@@H](Oc2ccc(-c3ncnc(Nc4ccc(N5CCN(C6COC6)CC5)cc4)n3)cc2C#N)CCN1C(=O)CO [Example 169, 2-(((2S,4S)-1-(2-hydroxyacetyl)-2-methylpiperidin-4-yl)oxy)-5-(4-((4-(4-(oxetan-3-yl)piperazin-1-yl)phenyl)amino)-1,3,5-triazin-2-yl)benzonitrile] |  |
| 255 | 3 | 8 | CC1CN(C(=O)CO)CCC1Oc1ccc(-c2ncnc(Nc3ccc(N4CCN(C5COC5)CC4)cc3)n2)cc1C#N (stereo not drawn) [Example 170, 2-((1-(2-hydroxyacetyl)-3-methylpiperidin-4-yl)oxy)-5-(4-((4-(4-(oxetan-3-yl)piperazin-1-yl)phenyl)amino)-1,3,5-triazin-2-yl)benzonitrile] |  |
| 117 | 6 | 3 | CC1(C)CN(C(=O)CO)CC(F)C1Oc1ccc(-c2ncnc(Nc3ccc(N4CCN(C5COC5)CC4)cc3)n2)cc1C#N (stereo not drawn) [Example 177, 2-((5-fluoro-1-(2-hydroxyacetyl)-3,3-dimethylpiperidin-4-yl)oxy)-5-(4-((4-(4-(oxetan-3-yl)piperazin-1-yl)phenyl)amino)-1,3,5-triazin-2-yl)benzonitrile] |  |
